Assay results taken from US6784185B2, “Pharmaceutically active compounds” (Pfizer Inc., priority 2001, dated 2004).

What follows are compounds tested against T1, cGMP-specific PDE (PDE5) (Homo sapiens, UniProt O76074) (assay: In vitro PDE inhibitory activity, cGMP PDE5). Conditions: enzyme from human corpus cavernosum tissue or human platelets; low substrate such that IC50≅Ki.
T1 construct: obtained from human corpus cavernosum tissue or human platelets; from tissue; host or cells: human corpus cavernosum tissue or human platelets
Assay type: biochemical
Protocol: The compounds of the present invention are potent and selective cGMP PDE5 inhibitors. In vitro PDE inhibitory activities against cyclic guanosine 3′,5′-monophosphate (cGMP) and cyclic adenosine 3′,5′-monophosphate (cAMP) phosphodiesterases were determined by measurement of their IC50 values (the concentration of compound required for 50% inhibition of enzyme activity).
The required PDE enzymes were isolated from a variety of sources, including human corpus cavernosum, human platelets, human cardiac ventricle, human skeletal muscle and human and canine retina, essentially by the method of W. J. Thompson and M. M. Appleman (Biochem., 1971, 10, 311). In particular, the cGMP-specific PDE (PDE5) and the cGMP-inhibited cAMP PDE (PDE3) were obtained from human corpus cavernosum tissue or human platelets; the cGMP-stimulated PDE (PDE2) was obtained from human corpus cavernosum or human platelets; the calcium/calmodulin (Ca/CAM)-dependent PDE (PDE1) from human cardiac ventricle; the cAMP-specific PDE (PDE4) from recombinant clone or human skeletal muscle; and the photoreceptor PDE (PDE6) from canine or human retina. Phosphodiesterases 7-11 were generated from full length human recombinant clones transfected into SF9 cells.
Assays were performed either using a modification of the “batch” method of W. J. Thompson et al. (Biochem., 1979, 18, 5228) or using a scintillation proximity assay for the direct detection of AMP/GMP using a modification of the protocol described by Amersham plc under product code TRKQ7090/7100. In summary, the effect of PDE inhibitors was investigated by assaying a fixed amount of enzyme in the presence of varying inhibitor concentrations and low substrate, (cGMP or cAMP in a 3:1 ratio unlabelled to [^3H]-labeled at a conc ˜1/2 Km) such that IC50≅Ki. The final assay volume was made up to 102 μl with assay buffer [20 mM Tris-HCl pH 7.4, 5 mM MgCl2, 1 mg/ml bovine serum albumin]. Reactions were initiated with enzyme, incubated for 30-60 min at 30° C. to give <30% substrate turnover and terminated with 50 μl yttrium silicate SPA beads (containing 3 mM of the respective unlabelled cyclic nucleotide for PDEs 3, 9 and 11). Plates were re-sealed and shaken for 20 min, after which the beads were allowed to settle for 30 min in the dark and then counted on a TopCount plate reader (Packard, Meriden, Conn.). Radioactivity units were converted to % activity of an uninhibited control (100%), plotted against inhibitor concentration and inhibitor IC50 values obtained using the ‘Fit Curve’ Microsoft Excel extension or in-house equivalent.
For `CCc1c2nc(-c3cc(C(C)=O)ccc3OCC(C)C)[nH]c(=O)c2nn1C1CN(C2CCC2)C1` [Example 2], the IC50 was 0.0138 µM. With `CCCCOc1ccc(C(C)=O)cc1-c1nc2c(CC)n(C3CN(C(C)C)C3)nc2c(=O)[nH]1` [Example 3] the IC50 was 0.023 µM. Compound `CCCOc1ccc(C(C)=O)cc1-c1nc2c(CC)n(CC(=O)OC(C)(C)C)nc2c(=O)[nH]1` [Example 6] has an IC50 of 0.0022 µM. `CCCOc1ccc(C(C)=O)cc1-c1nc2c(CC)n(CCCC(=O)O)nc2c(=O)[nH]1` [Example 12, 4-[5-(5-Acetyl-2-propoxyphenyl)-3-ethyl-7-oxo-6,7-dihydro-2H-pyrazolo[4,3-d]pyrimidin-2-yl]butanoic Acid] showed an IC50 of 0.0018 µM. In the case of `CCCOc1ccc(C(C)=O)cc1-c1nc2c(CC)n(CC(=O)N(C)C)nc2c(=O)[nH]1` [Example 13, 2-[5-(5-Acetyl-2-propoxyphenyl)-3-ethyl-7-oxo-6,7-dihydro-2H-pyrazolo[4,3-d]pyrimidin-2-yl]-N,N-dimethylacetamide], the IC50 is reported as 0.0119 µM.
